US20020065309A1, “Novel Bicyclic and tricyclic pyrrolidine derivatives as GnRH antagonists” (priority 1999, published 2002)

Target: T1, human GnRH receptor (Homo sapiens, UniProt P30968)
T1 construct: expressed in transfected cells; host or cells: COS-1 cells infected with recombinant adenovirus; membrane preparation
T1 sequence (P30968 1-328): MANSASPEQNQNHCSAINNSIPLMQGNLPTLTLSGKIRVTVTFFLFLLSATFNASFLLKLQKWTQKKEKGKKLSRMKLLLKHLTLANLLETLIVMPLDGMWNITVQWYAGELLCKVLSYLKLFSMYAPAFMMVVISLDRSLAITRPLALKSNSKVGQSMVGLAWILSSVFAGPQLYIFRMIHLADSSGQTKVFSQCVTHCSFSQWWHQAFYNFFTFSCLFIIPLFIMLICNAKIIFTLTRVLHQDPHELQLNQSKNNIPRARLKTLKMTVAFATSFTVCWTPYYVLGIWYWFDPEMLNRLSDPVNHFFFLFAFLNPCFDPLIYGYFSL
Assay: GnRH radioligand binding assay
Details: 125I-LHRH-D-Trp6 radioligand; COS-1 cell membranes containing human GnRH receptors; 2 h at 4 C
Protocol: COS-1 cells infected with a recombinant adenovirus directing the expression of the human GnRH receptor were harvested 48 hours after virus infection using cell dissociation buffer from Gibco-BRL and pelleted by centrifugation (5 min., 1100 rpm in RC3B, […]). The pellet was suspended in 20 ml ice cold binding buffer (25 mM Tris HCl, pH 7.4, 0.1% sodium azide, 0.1% BSA) and homogenized using polytron (Tempest Virtishear, Virtis).
The homogenate was centrifuged for 12 min. at 14,500 rpm in a RC5B and the supernatant discarded. The pellet was re-homogenized in 20 ml of binding buffer and centrifuged. The final pellet was resuspended in a small volume of binding buffer such that the final protein concentration was approximately 1.5 mg/ml (according to Pierce-BCA Protein kit). Aliquots of membrane preparation could then be stored frozen at −70 C without significant loss of binding activity for future use.
Samples were diluted in binding buffer (25 mM Tris pH 7.5, 10 MM MgCl2, 0.01% NaN3, 0.1% BSA) for the assay. The radioligand used was ^125I-LHRH-D-TrP6, approximately 50-70,000 counts/25 μl Non-specific binding was determined using LHRH-D-TrP6 at a final concentration of 1 µM. Addition of GnRH membranes to the assay was optimized to give a signal-to-noise ratio of 10:1.
Twenty-five μl sample (4× final concentration), 50 μl membranes and 25 μl radioligand were incubated in a V-bottom 96-well plate with shaking for 2 h at 4 C. The incubated mixture was then filtered onto a Whatman GF/B membrane pre-treated with 0.1% poly(ethylene imine) using a Packard Cell Harvester. The filter was dried for approximately 10 min. at 37 C. Forty μl Microscint 20 was added and the radioactivity remaining on the filter was counted using a Topcount γ-counter.
Binding inhibition was calculated from the measured values using a concentration series of each test compound in the conventional manner.

Row | IC50 | SMILES
1 | 35 ± 6 nM | COc1ccc(CN2C[C@@H]3C[C@@H](c4ccc(N(C)C)c5ccccc45)N4C(=O)N(CCN5CCOCC5)C(=O)[C@@]34C2)cc1O (relative stereo) [AF21276]
2 | 280 ± 170 nM | COc1cc(CN2C[C@@H]3C[C@@H](c4ccc(N(C)C)c5ccccc45)N4C(=O)N(CCN5CCOCC5)C(=O)[C@@]34C2)c(Br)c(Br)c1O (relative stereo) [AF21278]
3 | ~160 nM | COc1ccc(CN2C[C@@H]3C[C@@H](c4ccc(N(C)C)cc4)N4C(=O)N(CCN5CCOCC5)C(=O)[C@@]34C2)cc1O (relative stereo) [AF21479]
4 | ~321 nM | COc1ccc(CN2C[C@H]3C[C@H](c4ccc(N)c5ccccc45)N4C(=O)N(CCN5CCOCC5)C(=O)[C@]34C2)cc1O (relative stereo) [Compound 17, (trans)-5-[4-amino-1-naphthyl]-8-(3-hydroxy-4-methoxybenzyl)-2-(2-morpholin-4-ylethyl)hexahydro-1H-pyrrolo[3′,4′:2,3]pyrrolo[1,2-c]imidazole-1,3(2H)-dione]
5 | ~21 nM | COc1ccc(CN2C[C@H]3C[C@H](c4ccc(N(C)C)c5ccccc45)N4C(=O)N(CCN5CCOCC5)C(=O)[C@]34C2)cc1NC(C)=O (relative stereo) [Compound 36, N-{5-[((trans)-5-[4-(dimethylamino)-1-naphthyl]-2-(2-morpholin-4-ylethyl)-1,3-dioxohexahydro-1H-pyrrolo[3′,4′:2,3]pyrrolo[1,2-c]imidazol-8(9H)-yl)methyl]-2-methoxyphenyl}acetamide]
6 | ~270 nM | O=C1N(CCN2CCOCC2)C(=O)[C@]23CNC[C@H]2C[C@H](c2cnc4ccccc4c2)N13 (relative stereo) [Compound 76, (trans)-2-(2-morpholin-4-ylethyl)-5-quinolin-3-ylhexahydro-1H-pyrrolo [3′,4′:2,3] pyrrolo [1,2-c]imidazole-1,3(2H)-dione]

Further lines, the compound ahead of its results:

Row | SMILES | IC50
7 | CCOc1cc(CN2C[C@@H]3C[C@@H](c4ccc(N(C)C)c5ccccc45)N4C(=O)N(CCN5CCOCC5)C(=O)[C@@]34C2)ccc1O (relative stereo) [AF20660] | 800 ± 110 nM
8 | COc1ccc(CN2C[C@@H]3C[C@@H](c4ccc(OC)c5ccccc45)N4C(=O)N(CCN5CCOCC5)C(=O)[C@@]34C2)cc1O (relative stereo) [AF21477] | ~612 nM
9 | COc1cc(Br)c(CN2C[C@@H]3C[C@@H](c4ccc(N(C)C)c5ccccc45)N4C(=O)N(CCN5CCOCC5)C(=O)[C@@]34C2)cc1O (relative stereo) [AF21813] | ~80 nM
10 | COc1ccc(CN2C[C@@H]3C[C@@H](c4ccc(N(C)C)c5ccccc45)N4C(=O)N(CCc5ccncc5)C(=O)[C@@]34C2)cc1O (relative stereo) [AF22053] | ~385 nM
11 | COc1ccc(CN2C[C@@H]3C[C@@H](c4ccc(N(C)C)c5ccccc45)N4C(=O)N(CCN5CCNCC5)C(=O)[C@@]34C2)cc1O (relative stereo) [AF22352] | ~1500 nM
12 | COc1ccc(CN2C[C@H]3C[C@H](c4ccnc5ccccc45)N4C(=O)N(CCN5CCOCC5)C(=O)[C@]34C2)cc1O (relative stereo) [Compound 73, (trans)-8-(3-hydroxy-4-methoxybenzyl)-2-(2-morpholin-4-ylethyl)-5-quinolin-4-ylhexahydro-1H-pyrrolo [3′, 4′:2,3]pyrrolo[1,2-c]imidazole-1,3(2H)-dione] | ~1500 nM
